Reference: paper PMC4278187 (The Journal of General Physiology, 2015)

Tests used:
[1] = target: T1, ELIC (Erwinia chrysanthemi ligand-gated ion channel) (Dickeya chrysanthemi, UniProt P0C7B7); assay: macroscopic patch-clamp currents; assay type: cell-based
T1 sequence (P0C7B7 1-321): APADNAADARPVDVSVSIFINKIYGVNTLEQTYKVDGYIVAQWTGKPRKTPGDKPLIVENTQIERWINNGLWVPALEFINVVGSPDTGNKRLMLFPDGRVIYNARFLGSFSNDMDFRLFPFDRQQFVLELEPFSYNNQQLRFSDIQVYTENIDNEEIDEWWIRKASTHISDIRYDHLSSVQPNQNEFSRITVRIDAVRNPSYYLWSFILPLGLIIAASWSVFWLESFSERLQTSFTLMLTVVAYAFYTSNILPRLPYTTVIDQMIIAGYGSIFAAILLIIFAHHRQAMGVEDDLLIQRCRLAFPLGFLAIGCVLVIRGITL

[2] = target: T1, ELIC (Erwinia chrysanthemi ligand-gated ion channel); assay: whole-cell patch clamp concentration-response in HEK293 cells; assay type: cell-based

EC50 [2]	Structure (SMILES)	macroscopic patch-clamp currents (data not shown) [1]
	NCCS [cysteamine]	in our macroscopic records, the rebound current (see below) was more prominent when responses were elicited by cysteamine
500 ± 100 µM	CCCN [propylamine]	
